Where two headings read alike, the source gives them in different places.
Columns and labels:
[1] = Blood to plasma ratio with 14C-labeled compound; type: in vitro ADME; details: human fresh whole-blood, 0.5 μg/mL, 60 minutes, 37 °C
Method: The blood to plasma ratio was determined using ^14C-labeled ACT-451840 at Actelion Pharmaceuticals Ltd. (Allschwil, Switzerland). For this, human fresh whole-blood was spiked with a mixture of non-labeled and ^14C-labeled ACT-451840 at a nominal concentration of 0.5 μg / mL and incubated for 60 minutes on a rotary mixer at 37 °C. Radioactivity was determined by liquid scintillation counting in whole blood and after preparation of plasma.

[2] = system: GFP-transfected P. berghei ANKA strain; assay: In vivo efficacy, P. berghei mouse model; parameters: species or system Plasmodium berghei in female NMRI mice; details: for infected mice cured: no detectable parasites on Day 30, n=5
Method: In vivo efficacy against P. berghei was conducted at the Swiss TPH as previously described, with the modification that female NMRI mice from Harlan (Horst, The Netherlands) (n = 3) were infected with a GFP-transfected P. berghei ANKA strain (kindly donated by A. P. Waters and C. J. Janse, Leiden University Medical Center, The Netherlands) and parasitemia was determined using standard flow cytometry techniques. ACT-451840 was dissolved or suspended in corn oil before dosing and administered 24 h after infection (single-dose regimen) or 24, 48, and 72 h after infection (triple-dose regimen). With the single-dose regimen, blood was collected on Day 3 (72 h after infection). Samples for the triple-dose regimens were collected on Day 4 (96 h after infection). Antimalarial activity was calculated as the difference between the mean percent parasitemia for the control and treated groups expressed as a percent relative to the control group, consisting of five mice. Control mice were euthanized on Day 4 in order to prevent death typically occurring on Day 6. For the consistency in PK/PD modeling, Day 5 instead of Day 6 was considered the day of death, because treated animals were always euthanized one day before their natural death for animal welfare reasons. Animals were considered cured if there were no detectable parasites on Day 30 post-infection. To confirm the reliability of this assumption, blood from the surviving mice in curative experiments was inoculated into uninfected mice, and no parasitemia developed in these mice even after 30 d. The antimalarial efficacy is defined either as antimalarial activity or as survival: the two readouts of the P. berghei murine model.

[3] = system: P. vivax clinical isolates (Papua, Indonesia); assay: Ex vivo drug susceptibility, P. vivax clinical isolates; type: cell-based, Plasmodium vivax; details: P. vivax clinical isolates, n = 34 (open symbols); read-out: median IC50
Method: […]. Thick blood films made from each well were stained with 5% Giemsa solution for 30 min and examined microscopically. The number of schizonts per 200 asexual-stage parasites was determined for each drug concentration and normalized to the control well.

[4] = system: P. falciparum stage V gametocytes / oocysts in Anopheles stephensi; assay: Standard membrane feeding assay, indirect mode; type: cell-based, Plasmodium falciparum; details: 24 h pre-exposure of gametocytes
Method: ACT-451840 was tested in the standard membrane feeding assay at TropIQ (Nijmegen, The Netherlands) in two modes, as previously described. In the direct mode, the compound was directly added to a bloodmeal containing mature stage V gametocytes that was fed to Anopheles stephensi mosquitoes. […] Seven days after the bloodmeal, the number of oocysts in the midgut was determined by microscopy for both modes. […] Vehicle control (0.1% DMSO) and positive control (10 μM dihydroartemisinin) were included. Twenty mosquitoes were dissected per sample, and oocyst load was analyzed per mosquito.

[5] = system: P. falciparum PfNF54^0230/N3; assay: In vivo efficacy, P. falciparum mouse model (GSK)
Method: In vivo efficacy against P. falciparum was conducted at GSK according to the standard assay previously described. Female NODscidIL2Rγnull mice were engrafted with human erythrocytes and infected with the isolate P. falciparum PfNF54^0230/N3, a strain developed at GSK for growth in engrafted mice. […] Blood samples were collected on Days 3, 4, 5, 6, and 7 (n = 3 per time point) for parasitemia measurement by flow cytometry. Similarly, blood samples were collected at 0.5, 1, 2, 4, 6, 8, 12, 24, and 48 h after a single administration of 4.7 mg/kg of ACT-451840 to a parallel group of three P. falciparum-infected mice for PK parameters determination. Results are expressed exclusively as antimalarial activity in the P. falciparum murine model.

[6] = system: P. falciparum D6 (Sierra Leone); assay: [3H]-hypoxanthine incorporation assay, D6; type: cell-based, Plasmodium falciparum; details: read-out: 50% inhibitory concentration (IC50); D6, resistance MFQ; mean ± SD
[7] = in vivo
[8] = system: P. falciparum 7G8 (Brazil); assay: [3H]-hypoxanthine incorporation assay, 7G8; type: cell-based, Plasmodium falciparum; details: read-out: 50% inhibitory concentration (IC50); 7G8, resistance CQ, PYR, CYC; mean ± SD
[9] = system: P. falciparum W2 (Vietnam); assay: [3H]-hypoxanthine incorporation assay, W2; type: cell-based, Plasmodium falciparum; details: read-out: 50% inhibitory concentration (IC50); W2, resistance CQ, SUL, PYR, CYC; mean ± SD
[10] = Effect of formulation and food on oral pharmacokinetics in dogs; type: in vivo; details: for AUC increase versus suspension formulation / Cmax increase versus suspension formulation: fasted dogs; for AUC0-∞ geometric mean / Cmax geometric mean: dogs, 100 mg oral, fasted
[11] = single-dose regimen, oral 10 mg/kg
[12] = single-dose regimen, oral 15 mg/kg
[13] = single-dose regimen, oral 20 mg/kg
[14] = single-dose regimen, oral 25 mg/kg
[15] = single-dose regimen, oral 30 mg/kg
[16] = single-dose regimen, oral 60 mg/kg
[17] = single-dose regimen, oral 80 mg/kg
[18] = single-dose regimen, oral 100 mg/kg
[19] = single-dose regimen, oral 300 mg/kg
[20] = triple-dose regimen, oral 3 mg/kg once per day
[21] = triple-dose regimen, oral 50 mg/kg once per day
[22] = triple-dose regimen, oral 100 mg/kg once per day
[23] = triple-dose regimen, oral 300 mg/kg once per day
[24] = triple-dose regimen, oral 2 x 15 mg/kg (twice per day)
[25] = triple-dose regimen, oral 2 x 30 mg/kg (twice per day)

## CC(=O)N1CCN(c2ccc(CN(C(=O)/C=C/c3ccc(C(C)(C)C)cc3)[C@@H](Cc3ccccc3)C(=O)N3CCN(Cc4ccc(C#N)cc4)CC3)cc2)CC1 [ACT-451840]
[1]
  blood to plasma concentration ratio: 0.6
[2]; 100 mg/kg triple-dose regimen
  infected mice cured: 20%
[2]; 300 mg/kg triple-dose regimen
  infected mice cured: 100%
[2]; oral triple-dose regimen, calculated from data in S2 Text
  ED90: 13 mg/kg
[2]; [11]
  Antimalarial activity (%): 21.75%
  Survival: 5.0 days
[2]; [12]
  Antimalarial activity (%): 39.00%
  Survival: 5.0 days
[2]; [13]
  Antimalarial activity (%): 76.23%
  Survival: 7.0 days
[2]; [14]
  Antimalarial activity (%): 90.29%
  Survival: 6.7 days
[2]; [15]
  Antimalarial activity (%): 97.42%
  Survival: 7.9 days
[2]; [16]
  Antimalarial activity (%): 99.40%
  Survival: 13.7 days
[2]; [17]
  Antimalarial activity (%): 98.88%
  Survival: 12.7 days
[2]; [18]
  Antimalarial activity (%): 99.19%
  Survival: 12.4 days
[2]; [19]
  Antimalarial activity (%): 98.84%
  Survival: 15.7 days
[2]; [20]
  Antimalarial activity (%): 0.00%
  Survival: 6.0 days
[2]; triple-dose regimen, oral 10 mg/kg once per day
  Antimalarial activity (%): 32.25%
[2]; triple-dose regimen, oral 30 mg/kg once per day
  Antimalarial activity (%): 99.53%
[2]; [21]
  Antimalarial activity (%): 99.78%
  Survival: 15.6 days
[2]; [22]
  Antimalarial activity (%): 99.84%
  Survival: 21.8 days
[2]; [23]
  Antimalarial activity (%): 99.78%
  Survival: 30.0 days
[2]; [24]
  Antimalarial activity (%): 99.06%
  Survival: 9.0 days
[2]; [25]
  Antimalarial activity (%): 99.81%
  Survival: 14.6 days
[3]
  IC50: 3 nM
[4]; oocysts counted 7 d after bloodmeal, read-out: IC50 oocyst development in the mosquito (oocyst intensity)
  IC50: 30 nM
[4]; read-out: IC50 prevalence of infection (number of infected mosquitoes)
  IC50: 104 nM
[5]; P. falciparum mouse model, quadruple-dose regimen […], linearly extrapolated from single dose of 4.7 mg/kg
  total AUC in blood corresponding to the ED90: 227 ng·h/mL
[5]; oral quadruple-dose regimen, once a day
  effective dose resulting in 90% antimalarial activity (ED90): 3.7 mg/kg
[6]
  IC50: 0.5 ± 0.1 nM
[7]
  genotoxicity, micronucleus test: not genotoxic
[8]
  IC50: 0.3 ± 0.1 nM
[9]
  IC50: 0.2 ± 0.1 nM
[10]; Phosal 53 MCT solution
  AUC increase versus suspension formulation: 5.0 fold
  Cmax increase versus suspension formulation: 4.3 fold
  AUC0-∞ geometric mean: 597 ng·h/mL
  Cmax geometric mean: 112 ng/mL
[10]; corn oil solution
  AUC increase versus suspension formulation: 7.8 fold
  Cmax increase versus suspension formulation: 8.1 fold
  AUC0-∞ geometric mean: 935 ng·h/mL
  Cmax geometric mean: 213 ng/mL

From PMC5049785, “Characterization of Novel Antimalarial Compound ACT-451840: Preclinical Assessment of Activity and Dose–Efficacy Modeling” (PLoS Medicine, 2016)
